Measured values taken from patent US7033789B1, “DNA molecules encoding L-glutamate-gated chloride channels from Schistocerca americana” (Merck & Co., Inc., priority 1999, dated 2006).

Columns and labels:
[1] = test system: SaGluCl1 (short form “SC”) expressed in CHO cells; assay: Current measurement in CHO cells expressing SaGluCl1; type: cell-based, Schistocerca americana
Experimental: FIG. 4A and FIG. 4B show the SaGluCl1 (short form “SC”) expressed in CHO cells assembles into a homomultimer and is activated by ivermectin (FIG. 4A) and nodulasporic acid (FIG. 4B). 100 nM ivermectin and 1 μM nodulasporic acid were added at 20 seconds and current was measured.
PTet-Splice subclones of SaGluCl1 and SaGluCl2 as disclosed in Example section 1 were transfected into CHO Tet-Off cells (Clontech labs, Inc.) using the Lipofectamine Plus reagent (Life Technologies Inc.). Stable cell lines are selected by growth in the presence of G418. Single G418 resistant clones are isolated and shown to contain the intact SaGluCl gene. Clones containing the SaGluCl cDNAs may be analyzed for expression using immunological techniques, such as immuneprecipitation, Western blot, and immunofluorescence using antibodies specific to the SaGluCl proteins. Antibody may obtained from rabbits innoculated with peptides that are synthesized from the amino acid sequence predicted from the SaGluCl sequences. Expression is also analyzed using patch clamp electrophysiological techniques, an anion flux assay, and ^3H-ivermectin and ^3H-glutamate binding assays.
The expression of recombinant SaGluCl1 and/or SaGluCl2 is achieved by transfection of the full-length SaGluCl cDNA into a mammalian host cell described herein.

[2] = test system: SaGluCl1 (short form “SC”) glutamate-gated chloride channel; assay: Two microelectrode voltage clamp of Xenopus oocytes expressing SaGluCl1; type: cell-based, Schistocerca americana; conditions: for activation of the channel (chloride current): short form of SaGluCl1 in Xenopus laevis oocytes; for current elicited on application of the compound: Xenopus oocyte, SaGluCl1 short form SC, membrane potential held at 0 mV (FIG. 3)
Text: The measurement is made with the two microelectrode voltage clamp technique and the membrane potential was held at 0 mV. Two current recordings are superimposed. The bars at top show the duration of application of glutamate and ivermectin phosphate.
Full length cDNA clones corresponding to the selected RT-PCR sequences were used as template for synthesis of in vitro transcribed RNA (Ambion Inc.). The full-length cDNA encoding SaGluCl1 in a Bluescript plasmid is linearized and capped cRNA transcripts are synthesized using appropriate oligonucleotide primers and the mMESSAGE mMACHINE in vitro RNA transcription kit from Ambion. Xenopus laevis oocytes were prepared and injected using standard methods as described (Arena et al., 1991, Mol. Pharmacol. 40: 368–374; Arena et al, 1992, Mol. Brain Res. 15: 339–348). Adult female Xenopus laevis were anesthetized with 0.17% tricaine methanesulfonate and the ovaries were surgically removed and placed in a dish consisting of (mM): NaCl 82.5, KCl 2, MgCl2 1, CaCl2 1.8, HEPES 5, adjusted to pH 7.5 with NaOH(OR-2). Ovarian lobes were broken open, rinsed several times, and gently shaken in OR-2 containing 0.2% collagenase (Sigma, Type 1A) for 2–5 hours. When approximately 50% of the follicular layers were removed, Stage V and VI oocytes were selected and placed in media consisting of (mM): NaCl 86, KCl 2, MgCl2 1, CaCl2 1.8, HEPES 5, Na pyruvate 2.5, theophylline 0.5, gentamicin 0.1 adjusted to pH 7.5 with NaOH (ND-96) for 24–48 hours before injection. For most experiments, oocytes were injected with 10 ng of cRNA in 50 nl of RNase free water. Control oocytes were injected with 50 nl of water. Oocytes were incubated for 1–5 days in ND-96 supplemented with […] gentamycin, 2.5 mM Na pyruvate and 0.5 mM theophylline before recording. Incubations and collagenase digestion were carried out at 18° C.
Voltage-clamp studies were conducted with the two microelectrode voltage clamp technique using a Dagan CA1 amplifier (Dagan Instruments, Minneapolis, Minn.). The current passing microelectrodes were filled with 0.7 M KCl plus 1.7 M K3-citrate and the voltage recording microelectrodes were filled with 1.0 M KCl. The extracellular solution for most experiments was saline consisting of (mM): NaCl 96, BaCl2 3.5, MgCl2 0.5, CaCl2 0.1, HEPES 5, adjusted to pH 7.5 with NaOH. The extracellular chloride concentration was reduced in some experiments by equimolar replacement of NaCl with the sodium salt of the indicated anion. Experiments were conducted at 21–24° C. Data were acquired using the program Pulse and most analysis was performed with the companion program Pulsefit (Instrutech Instruments, Great Neck, N.Y.) or with Igor Pro (Wavemetrics, Lake Oswego, Oreg.). Data were filtered (fc, −3 db) at 1 kHz, unless otherwise indicated. […] The measurement was made as described in this Example with the two microelectrode voltage clamp technique and the membrane potential was held at 0 mV. Two current recordings are superimposed. The bars at top show the duration of application of glutamate and ivermectin phosphate.

Molecule | activation of homomultimer channel, current measured ([1]; 100 nM added at 20 seconds (FIG. 4A)) | activation of the channel (chloride current) [2] | current elicited on application of the compound [2] | activation of homomultimer channel, current measured ([1]; 1 μM added at 20 seconds (FIG. 4B))
CC[C@H](C)[C@H]1O[C@]2(CC[C@@H]1C)C[C@@H]1C[C@@H](C/C=C(\C)[C@@H](O[C@H]3C[C@H](OC)[C@@H](O[C@H]4C[C@H](OC)[C@@H](O)[C@H](C)O4)[C@H](C)O3)[C@@H](C)/C=C/C=C3\CO[C@@H]4[C@H](O)C(C)=C[C@@H](C(=O)O1)[C@]34O)O2 [ivermectin, 22,23-dihydro-avermectin B1a] | activated | activated | – | –
ivermectin phosphate | – | – | elicited a current of similar amplitude, but the channel stayed open much longer | –
N[C@@H](CCC(=O)O)C(=O)O [glutamate, L-glutamate] | – | robust L-glutamate-gated chloride current | elicited a rapidly desensitizing current | –
nodulasporic acid | – | activated | – | activated
